Among the data in PubChem BioAssay AID180 (DTP/NCI, 2004) are T/C values, retold here.

Each structure is given as a SMILES string. Where “and” joins values, the source holds several entries; their conditions need not be identical. Equal values may be shown once.

The assay deals with BDF1 mice, Adenocarcinoma 755 s.c., tumor weight T/C. Put plainly: NCI In Vivo Anticancer Drug Screen. Data for tumor model Adenocarcinoma 755 (subcutaneous) in B6D2F1 (BDF1) mice. As to conditions: endpoint: mean tumor weight, higher = larger tumour. A digest of the protocol: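 In vivo antitumor screen on a transplantable tumor line. Result equals the measure in compound-treated animals divided by the same measure in vehicle controls.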

[1] abbreviates: dose: 25.0 mg/kg/injection, schedule: Q01DX011 (ip), vehicle: methylcellulose (MC).

Broadly, the T/C is the ratio of treated to control. As for `CCCCCCCCCCCCCCCCCCN(C)C`, the T/C was 61 % of control (dose: 12.0 mg/kg/injection, schedule: Q01DX011 (ip), vehicle: distilled water + alcohol); 43 % of control (dose: 18.0 mg/kg/injection, schedule: Q01DX011 (ip), vehicle: distilled water + alcohol); 51 % of control (dose: 27.0 mg/kg/injection, schedule: Q01DX011 (ip), vehicle: distilled water + alcohol); 36 % of control (dose: 40.0 mg/kg/injection, schedule: Q01DX011 (ip), vehicle: distilled water + alcohol).

On to `C[C@]12C=CC(=O)C=C1CC[C@@H]1[C@@H]2[C@@H](O)C[C@@]2(C)[C@H]1CC[C@]2(O)C(=O)CF`, for which the T/C was 64 % of control (dose: 8.0 mg/kg/injection, schedule: Q01DX011 (sc), vehicle: steriod suspending solution); 22 % of control (dose: 16.0 mg/kg/injection, schedule: Q01DX011 (sc), vehicle: steriod suspending solution); 30 % of control (dose: 132.0 mg/kg/injection, schedule: Q01DX011 (sc), vehicle: steriod suspending solution); 5 % of control (dose: 264.0 mg/kg/injection, schedule: Q01DX011 (sc), vehicle: steriod suspending solution).

Consider `CC(=O)OC1(C)CC(C)C(=O)C(C(O)CC2CC(=O)NC(=O)C2)C1` (stereo not given), for which the T/C reads like this: (dose: 0.2 mg/kg/injection, schedule: Q01DX006 (ip), vehicle: other) 38 % of control; (dose: 0.5 mg/kg/injection, schedule: Q01DX006 (ip), vehicle: other) 17 % of control; (dose: 0.5 mg/kg/injection, schedule: Q01DX006 (ip), vehicle: water) 72 % of control; (dose: 2.0 mg/kg/injection, schedule: Q01DX006 (ip), vehicle: water) 66 % of control; (dose: 5.0 mg/kg/injection, schedule: Q01DX006 (ip), vehicle: water) 114 % of control; (dose: 10.0 mg/kg/injection, schedule: Q01DX006 (ip), vehicle: water) 71 % of control. In addition, the T/C reads like this: (dose: 1:500.0 dilution, schedule: Q01DX006 (ip), vehicle: water) 84 % of control; (dose: 1:1000.0 dilution, schedule: Q01DX006 (ip), vehicle: water) 115 % of control; (dose: 1:2000.0 dilution, schedule: Q01DX006 (ip), vehicle: water) 105 % of control and 83 % of control; (dose: 1:20000.0 dilution, schedule: Q01DX006 (ip), vehicle: water) 39 % of control; (dose: 1:100000.0 dilution, schedule: Q01DX006 (ip), vehicle: water) 101 % of control.

On to `CS(=O)(=O)OCCC(=O)N1CCC(CCC2CCN(C(=O)CCOS(C)(=O)=O)CC2)CC1`, for which the T/C runs as follows: under setting [1], 79 % of control; (dose: 75.0 mg/kg/injection, schedule: Q01DX011 (ip), vehicle: methylcellulose (MC)) 63 % of control; (dose: 225.0 mg/kg/injection, schedule: Q01DX011 (ip), vehicle: methylcellulose (MC)) 81 % of control.

With `CCCCn1cnc2c(SCC(=O)O)nc(N)nc21`, the T/C is 54 % of control under setting [1]; 58 % of control (dose: 80.0 mg/kg/injection, schedule: Q01DX011 (ip), vehicle: methylcellulose (MC)); 69 % of control (dose: 250.0 mg/kg/injection, schedule: Q01DX011 (ip), vehicle: methylcellulose (MC)).

As for `Cn1cnc2c(ncn2C2OC(CO)C(O)C2O)c1=N` (stereo not given), the T/C reads like this: (dose: 30.0 mg/kg/injection, schedule: Q01DX011 (ip), vehicle: saline) 118 % of control; (dose: 120.0 mg/kg/injection, schedule: Q01DX011 (ip), vehicle: saline) 47 % of control; (dose: 240.0 mg/kg/injection, schedule: Q01DX011 (ip), vehicle: saline) 74 % of control.

For the compound `O=C(O)CCCc1ccc(N(CCCl)CCCl)cc1`, the T/C runs as follows: (dose: 0.5 mg/kg/injection, schedule: Q01DX011 (ip), vehicle: carboxymethylcellulose (CMC)) 93 % of control; (dose: 1.0 mg/kg/injection, schedule: Q01DX011 (ip), vehicle: carboxymethylcellulose (CMC)) 43 % of control; (dose: 1.25 mg/kg/injection, schedule: Q01DX011 (ip), vehicle: methylcellulose (MC)) 31 % of control; (dose: 1.81 mg/kg/injection, schedule: Q01DX011 (ip), vehicle: carboxymethylcellulose (CMC)) 60 % of control; (dose: 1.94 mg/kg/injection, schedule: Q01DX011 (ip), vehicle: carboxymethylcellulose (CMC)) 38 % of control; (dose: 2.0 mg/kg/injection, schedule: Q01DX011 (ip), vehicle: saline) 99 % of control. Besides, the T/C runs as follows: (dose: 2.5 mg/kg/injection, schedule: Q01DX011 (ip), vehicle: methylcellulose (MC)) 89 % of control; (dose: 3.63 mg/kg/injection, schedule: Q01DX011 (ip), vehicle: carboxymethylcellulose (CMC)) 34 % of control; (dose: 3.88 mg/kg/injection, schedule: Q01DX011 (ip), vehicle: carboxymethylcellulose (CMC)) 37 % of control; (dose: 4.0 mg/kg/injection, schedule: Q01DX011 (ip), vehicle: saline) 49 % of control; (dose: 5.0 mg/kg/injection, schedule: Q01DX011 (ip), vehicle: methylcellulose (MC)) 33 % of control; (dose: 5.8 mg/kg/injection, schedule: Q01DX011 (ip), vehicle: carboxymethylcellulose (CMC)) 41 % of control. Moreover, the T/C is 75 % of control (dose: 6.2 mg/kg/injection, schedule: Q01DX011 (ip), vehicle: carboxymethylcellulose (CMC)); 26 % of control (dose: 6.25 mg/kg/injection, schedule: Q01DX011 (ip), vehicle: methylcellulose (MC)); 30 % of control and 48 % of control (dose: 7.25 mg/kg/injection, schedule: Q01DX011 (ip), vehicle: carboxymethylcellulose (CMC)); 16 % of control and 29 % of control (dose: 7.75 mg/kg/injection, schedule: Q01DX011 (ip), vehicle: carboxymethylcellulose (CMC)); 37 % of control (dose: 8.0 mg/kg/injection, schedule: Q01DX011 (ip), vehicle: saline); 9 % of control (dose: 9.66 mg/kg/injection, schedule: Q01DX011 (ip), vehicle: carboxymethylcellulose (CMC)). The T/C by setting is: (dose: 10.0 mg/kg/injection, schedule: Q01DX011 (ip), vehicle: methylcellulose (MC)) 10 % of control; (dose: 10.33 mg/kg/injection, schedule: Q01DX011 (ip), vehicle: carboxymethylcellulose (CMC)) 14 % of control; (dose: 12.5 mg/kg/injection, schedule: Q01DX011 (ip), vehicle: methylcellulose (MC)) 5 % of control; (dose: 14.5 mg/kg/injection, schedule: Q01DX011 (ip), vehicle: carboxymethylcellulose (CMC)) 2 % of control and 6 % of control; (dose: 15.5 mg/kg/injection, schedule: Q01DX011 (ip), vehicle: carboxymethylcellulose (CMC)) 4 % of control; (dose: 1812.0 micrograms/kg/injection, schedule: Q01DX011 (ip), vehicle: carboxymethylcellulose (CMC)) 118 % of control. The T/C (dose: 3625.0 micrograms/kg/injection, schedule: Q01DX011 (ip), vehicle: carboxymethylcellulose (CMC)) was 58 % of control and the T/C (dose: 7250.0 micrograms/kg/injection, schedule: Q01DX011 (ip), vehicle: carboxymethylcellulose (CMC)) was 59 % of control.

For the compound `SCc1ccccn1`, the T/C is 109 % of control (dose: 37.8 mg/kg/injection, schedule: Q01DX011 (ip), vehicle: carboxymethylcellulose (CMC)) and 97 % of control (dose: 300.0 mg/kg/injection, schedule: Q01DX011 (ip), vehicle: carboxymethylcellulose (CMC)).

For the compound `O=P(N1CC=CCC1)(N1CC1)N1CC1`, the T/C was 75 % of control (dose: 0.03 mg/kg/injection, schedule: Q01DX011 (ip), vehicle: saline); 81 % of control (dose: 0.05 mg/kg/injection, schedule: Q01DX011 (ip), vehicle: saline); 114 % of control (dose: 0.1 mg/kg/injection, schedule: Q01DX011 (ip), vehicle: saline); 100 % of control (dose: 0.2 mg/kg/injection, schedule: Q01DX011 (ip), vehicle: saline); 120 % of control (dose: 25.0 micrograms/kg/injection, schedule: Q01DX011 (ip), vehicle: saline); 94 % of control (dose: 50.0 micrograms/kg/injection, schedule: Q01DX011 (ip), vehicle: saline). The T/C (dose: 100.0 micrograms/kg/injection, schedule: Q01DX011 (ip), vehicle: saline) is 114 % of control and the T/C (dose: 200.0 micrograms/kg/injection, schedule: Q01DX011 (ip), vehicle: saline) was 106 % of control.

With `CC(C)=NOC(N)=O`, the T/C is 122 % of control (dose: 100.0 mg/kg/injection, schedule: Q01DX011 (ip), vehicle: water) and 106 % of control (dose: 200.0 mg/kg/injection, schedule: Q01DX011 (ip), vehicle: water).

Regarding `NC(=O)CF`, under “dose: 2.5 mg/kg/injection, schedule: Q01DX011 (ip), vehicle: other”, the T/C is 72 % of control.

As to `C[C@]12CC[C@H](O)C[C@H]1CC[C@@H]1[C@@H]2CC[C@]2(C)[C@@H](C3=CC(=O)OC3)[C@@H](O)C[C@]12O`, the T/C is 91 % of control (dose: 3.0 mg/kg/injection, schedule: Q01DX011 (sc), vehicle: steriod suspending solution); 80 % of control (dose: 25.0 mg/kg/injection, schedule: Q01DX011 (sc), vehicle: steriod suspending solution); 110 % of control (dose: 50.0 mg/kg/injection, schedule: Q01DX011 (sc), vehicle: steriod suspending solution).
